Reference: publication PMC4721142, “Randomized controlled studies on the efficacy of antiarthritic agents in inhibiting cartilage degeneration and pain associated with progression of osteoarthritis in the rat” (Arthritis Research & Therapy, 2016)
Several values for one entry are separate records, joined by “and”; a condition that tells them apart may be missing. Equal values may be shown once.

Assays:
[1] = test system: RAW 264.7 cells; experiment: RANKL-mediated osteoclastogenesis / matrix resorption (Osteologic) assay; format: cell-based, murine; conditions: for minimal effective concentration: Mus musculus, RAW264.7, 168 h, read-out: Lowest inhibitory concentration, matrix resorption
Summary of the method: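 Agents were tested during or after differentiation. Wells were bleached and resorption pits were quantified by image analysis versus RANKL-only controls, using an unpaired t-test.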

[2] = Comparison of in vitro screens: overlapping effective and nontoxic range; conditions: for Overlapping effective and nontoxic range: inhibits with minimal or no toxicity to synovium or cartilage, overlapping range if effective in more than one assay;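 on all read-outs here: compares non-toxic ranges in synovial cells and chondrocytes with effective ranges against NFkB, MMP-13 and osteoclasts, giving their overlap as the predicted efficacy range in uM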
[3] = test system: MIA rat model of OA; experiment: MIA trial 3 histopathology (same doses as dRS test); format: in vivo; design: key to Cartilage matrix damage score: 5-point cartilage matrix score; key to Mean of all cartilage loss: approximate % loss, mean of four articular surfaces; Subchondral bone sclerosis: scale not given here; conditions: group mean
Source text: For MIA trial 3, joints were fixed and toluidine blue–stained sections of the rat knees were comprehensively analyzed from test and control subjects as detailed in Additional file 1. Briefly, a 5-point cartilage matrix score was derived based upon (1) approximate percentage of total loss of articular chondrocytes for each of four articular surfaces, (2) estimated proteoglycan loss (via Safranin O staining), and (3) loss of interstitial matrix. Chondrocyte necrosis and proteolytic degeneration of the femurs were scored on a 5-point scale as in trial 1. A femoral cartilage degeneration score and a three-zone sum of the tibial cartilage degeneration scores (mean of three levels) were also summed to create a total cartilage degeneration score. The mean osteophyte score for each joint was added to this value to create a total joint score with matrix. Other parameters assessed included synovial membrane inflammation and proliferation. Representative images from each group were also collected (see, e.g., Fig. 4 and Additional file 1: Fig. S55, Trial 3). […]
Hawes, APS, Pathologist). Treatments were masked during the assessment. Chondrocyte necrosis and proteolytic degeneration of the femurs were scored on a 5 point scale with 0 = None; 1 = <10%; […]
For the histopathology of the MIA model in Trial 3, completed by Bolder BioPATH (and Dr.
Bendele), a tolouidine blue stained slide containing both halves of the joint was comprehensively analyzed from test and control subjects. Approximate % of total loss of articular chondrocytes, loss of proteoglycan and loss of collagenous matrix were determined for each articular surface (medial tibial plateau (MTP), lateral tibial plateau (LTP), medial femoral condyle (MFC), and lateral femoral condyle (LFC). Chondrocyte loss was quantified by estimating the area of cartilage in which there were no apparently viable chondrocytes and proteoglycan loss was quantified by estimating differences in intensity of toluidine blue matrix staining. Loss of interstitial matrix was an indication of disruption and diminished type II collagen. Based on the mean % loss for the four surfaces in these parameters, a five point matrix score was utilized with the subchondral bone resorption, subchondral bone sclerosis and osteophyte scores to achieve a total joint score. […]
[…] steps, stained with toluidine blue (with a right and left halve per section), and analyzed for cartilage degeneration, proteoglycan loss, collagen damage, and osteophyte formation. Results were averaged across the 3 sections for an overall semi-quantitative score. Regional differences across the tibial plateau were taken into consideration by dividing each section into 3 zones delineated using an ocular micrometer (outside, middle, and inside). Scores were based on the percentage of area affected within the zone.
Cartilage degeneration in the tibia was scored on a five point scale for each zone, collagen damage across the medial tibial plateau was measured by total width for each grade damage. Cartilage degeneration in the tibia was scored none to severe (numerical values 0-5) for each zone (area defined by micrometer) using the following criteria: […]

[4] = published half-life; cited from earlier work
[5] = test system: Normal human articular chondrocytes; experiment: Cytotoxicity to chondrogenic pellets (CellTiter-Blue)
Procedure: Differentiated chondrogenic pellets were used both to test the ability of drugs to block MMP-13 activity and to test for drug toxicity. […] Supernatants were collected and analyzed for MMP-13 using an enzyme-linked immunosorbent assay (GE Healthcare Life Sciences, Little Chalfont, UK). Cytotoxicity to pellets was assessed using CellTiter-Blue (Promega).

[6] = test system: SW982; experiment: Synovial toxicity (CellTiter-Glo), with or without TNF-α
Procedure: Viability was measured with the CellTiter-Glo luminescent viability assay (Promega). […] To more accurately predict the effects of the drugs on osteoarthritic synovium, cells were tested with or without TNF-α (20 ng/ml; BioSource).
In Vitro Toxicity Testing with a Synovial Cell Line
Compounds were tested for synovial toxicity using SW982 cells alone or in the presence of TNF as

Compound | Overlapping effective and nontoxic range [2] [µM] | Bone resorption percent, LFC ([3]; i.a. weekly) [%] | Bone resorption percent, LTP ([3]; i.a. weekly) [%] | Bone resorption percent, MFC ([3]; i.a. weekly) [%] | Bone resorption percent, MTP ([3]; i.a. weekly) [%] | Bone resorption percent, mean ([3]; i.a. weekly) [%] | Bone resorption score ([3]; i.a. weekly) | Cartilage matrix damage score ([3]; i.a. weekly) | Mean of all cartilage loss ([3]; i.a. weekly) | Osteophyte measure ([3]; i.a. weekly) [µm] | Osteophyte score ([3]; i.a. weekly) | Subchondral bone sclerosis ([3]; i.a. weekly) | Total joint score w/o matrix ([3]; i.a. weekly) | Total joint score with matrix ([3]; i.a. weekly) | t 1/2 [4] | Non-toxic range (Chondrocyte) [5] [µM] | Non-toxic range (Synovial) [6] | minimal effective concentration [1] [µM] | Non-toxic & predicted range of efficacy [2] [µM] | other results
Clc1cccc(Cl)c1N=C1NCCN1 [Clonidine] | 10 to 100 | 51 | 61 | 47 | 65 | 56 | 3.0 | 3.0 and 3.0 ± 1.1 | 47.8 | 560.0 | 2.7 | 0.0 | 5.7 | 8.7 and 8.7 ± 3.3 | α2-Receptor agonist and antihypertensive agent Possible induction of iNOS through NF-κB [77] t 1/2 = 6–20 h | 0.156 to 100 | 1.56 to 100 µM |  |  | Lowest inhibitory concentration, matrix resorption [1]: 10 µM; Bone resorption percent, LFC ([3]; clonidine 100 μg/kg s.c.): 72%; Bone resorption percent, LTP ([3]; clonidine 100 μg/kg s.c.): 87%; Bone resorption percent, MFC ([3]; clonidine 100 μg/kg s.c.): 67%; Bone resorption percent, MTP ([3]; clonidine 100 μg/kg s.c.): 83%; Bone resorption percent, mean ([3]; clonidine 100 μg/kg s.c.): 77%; Bone resorption score ([3]; clonidine 100 μg/kg s.c.): 4.3; Cartilage matrix damage score ([3]; clonidine 100 μg/kg s.c.): 3.7 and 3.7 ± 0.9; Mean of all cartilage loss ([3]; clonidine 100 μg/kg s.c.): 64.9; Osteophyte measure ([3]; clonidine 100 μg/kg s.c.): 560.0 µm; Osteophyte score ([3]; clonidine 100 μg/kg s.c.): 2.7; Subchondral bone sclerosis ([3]; clonidine 100 μg/kg s.c.): 0.0; Total joint score w/o matrix ([3]; clonidine 100 μg/kg s.c.): 7.0; Total joint score with matrix ([3]; clonidine 100 μg/kg s.c.): 10.7 and 10.7 ± 2.8
COc1cc(/C=C/C(=O)CC(=O)/C=C/c2ccc(O)c(OC)c2)ccc1O [Curcumin, Diferuloylmethane] |  |  |  |  |  |  |  |  |  |  |  |  |  |  |  | 0.84 to 27 | 1.7 to 54 µM |  |  | t 1/2 intestinal [4]: 10 min; t 1/2 plasma [4]: 30 to 50 min
CC1(C)O[C@@H]2C[C@H]3[C@@H]4C[C@H](F)C5=CC(=O)C=C[C@]5(C)[C@@]4(F)[C@@H](O)C[C@]3(C)[C@]2(C(=O)CO)O1 [Fluocinolone, Fluocinolone Acetonide] | 3.1 to 100 | 67 | 67 | 72 | 67 | 68 | 3.7 | 3.3 and 3.3 ± 1.2 | 53.7 | 706.7 | 3.3 | 0.0 | 7.0 | 10.3 and 10.3 ± 2.7 | Corticosteroid (potent) Blocks IL-1 and TNF production and TNF-induced apoptosis [92] t 1/2 = 1.3 – 1.7 h | 1.56 to 250 | 1.56 to 100 µM | 0.00977 | 3.1 to 250 | Effective range against Osteoclasts [1]: ≥ 9.77 nM
C=CC[C@@H]1/C=C(\C)C[C@H](C)C[C@H](OC)[C@H]2O[C@@](O)(C(=O)C(=O)N3CCCC[C@H]3C(=O)O[C@H](/C(C)=C/[C@@H]3CC[C@@H](O)[C@H](OC)C3)[C@H](C)[C@@H](O)CC1=O)[C@H](C)C[C@@H]2OC [Tacrolimus] | 50 | 100 | 100 | 100 | 100 | 100 | 5.0 | 5.0 and 5.0 ± 0.0 | 92.5 | 666.7 | 3.3 | 0.0 | 8.3 | 13.3 and 13.3 ± 1.7 |  | 0.8 to 50 | 1.5 to 100 µM | 0.0026 | 25 to 50 | 
COc1ccc(C=CC(=O)Nc2ccccc2C(=O)O)cc1OC [Tranilast, N-(3′,4′-dimethoxycinnamoyl)anthranilic acid] | 1 to 8 | 100 | 100 | 100 | 97 | 99 | 5.0 | 5.0 and 5.0 ± 0.0 | 89.7 | 893.3 | 4.3 | 0.0 | 9.3 | 14.3 and 14.3 ± 0.3 | Anti-inflammatory and analgesic properties in collagen-induced arthritis (RA model) [34]. Suppresses COX-2 and iNOS expression, reduces PGE2 and iNOS-derived NO production in stimulated macrophages. Diminishes TNF-α and IL-1β production [35]. T1/2 = 7.4 h | 125000 to 8e+06 | 0.125 to 8 µM | 0.5 | 1 to 8 | 
CC(C)(C)CC(=O)OCC(=O)[C@@]12OC(C)(C)O[C@@H]1C[C@H]1[C@@H]3CCC4=CC(=O)C=C[C@]4(C)[C@@]3(F)[C@@H](O)C[C@@]12C [Triamcinolone hexacetonide] | 62.5 to 3750 | 35 | 34 | 35 | 32 | 34 | 2.3 | 3.3 ± 0.9 | 61.1 | 453.3 | 2.0 | 0.7 | 5.0 | 8.3 ± 2.6 | Steroid t 1/2 = 88 min |  | 3.12 to 400 µM | 0.297 |  | Cartilage matrix damage score ([3]; i.a. weekly, listed as TH): 3.3; Total joint score with matrix ([3]; i.a. weekly, listed as Trimacinolone Hexacetonide): 8.3
CC1=C(CO)C(=O)O[C@@H]([C@@H](C)[C@H]2CC[C@H]3[C@@H]4C[C@H]5O[C@]56[C@@H](O)C=CC(=O)[C@]6(C)[C@H]4CC[C@]23C)C1 [Withaferin A] | 4.25 to 17 |  |  |  |  |  |  |  |  |  |  |  |  |  | Reportedly inhibits NF-κB activation by preventing the TNF-α-induced activation of IKK-β (IKK-2) [102] Blocks osteoclastogenesis of bone remodeling [103] t 1/2 = 1.36 h | 0.27 to 2.1 | Toxic | 0.53 | 0.27 to 2.1 | 
